Drawing on PubChem BioAssay AID336 (DTP/NCI, 2004), this text covers T/C for 19 compounds.

“And” between values parts separate entries of the source, which are not always exact repeats. Identical values can stand only once. Inconclusive results and toxic doses are left out.

This assay deals with BDF1 mice, P388/VCR leukemia ip, median survival T/C. In words: NCI In Vivo Anticancer Drug Screen. Data for tumor model P388 Leukemia resistant to Vincristine; NSC 67574 (intraperitoneal) in B6D2F1 (BDF1) mice. As to conditions: endpoint: median survival time, higher = longer survival. As for the experimental part:
The antitumor activity of compounds was measured in mice bearing transplantable tumors. Survival or tumor size were measured and the results are expressed as the measurement made in the treated group (T) divided by the measurement made in the vehicle treated control group (C). The tumor model used in this assay is P388 Leukemia resistant to Vincristine; NSC 67574 (intraperitoneal) in B6D2F1 (BDF1) mice

Where [1] appears, read: dose: 10.0 mg/kg/injection, schedule: Q01DX010 (ip), vehicle: saline.
The mark [2] stands for this setting: dose: 40.0 mg/kg/injection, schedule: Q01DX010 (ip), vehicle: saline.
Setting [3] is: dose: 90.0 mg/kg/injection, schedule: Q01DX010 (ip), vehicle: saline.
Setting [4] is: dose: 20.0 mg/kg/injection, schedule: Q01DX010 (ip), vehicle: saline.
[5] abbreviates: dose: 8.0 mg/kg/injection, schedule: Q01DX010 (ip), vehicle: saline.
The mark [6] stands for this setting: dose: 16.0 mg/kg/injection, schedule: Q01DX010 (ip), vehicle: saline.
[7] abbreviates: dose: 32.0 mg/kg/injection, schedule: Q01DX010 (ip), vehicle: saline.
Setting [8] is: dose: 25.0 mg/kg/injection, schedule: Q01DX010 (ip), vehicle: saline.
Where [9] appears, read: dose: 50.0 mg/kg/injection, schedule: Q01DX010 (ip), vehicle: saline.

For the compound `COC(=O)C[C@](O)(CCC(C)(C)O)C(=O)O[C@@H]1C(OC)=C[C@]23CCCN2CCc2cc4c(cc2[C@H]13)OCO4`, the T/C was 92 % of control (dose: 0.25 mg/kg/injection, schedule: Q01DX009 (ip), vehicle: saline); 100 % of control (dose: 0.5 mg/kg/injection, schedule: Q01DX009 (ip), vehicle: saline); 88 % of control (dose: 1.0 mg/kg/injection, schedule: Q01DX009 (ip), vehicle: saline).
In the case of `CC1CN=C(c2ccc(NC(=O)c3ccc(C(=O)Nc4ccc(C5=NCC(C)N5)cc4)cc3)cc2)N1` (stereo not given), the T/C is 113 % of control (dose: 22.0 mg/kg/injection, schedule: Q01DX010 (ip), vehicle: saline) and 109 % of control (dose: 33.0 mg/kg/injection, schedule: Q01DX010 (ip), vehicle: saline).
`CC1CC(C)(O)CC(C(O)CC2CC(=O)NC(=O)C2)C1=O` (stereo not given): the T/C reads like this: (dose: 480.0 micrograms/kg/injection, schedule: Q01DX009 (ip), vehicle: saline) 105 % of control; (dose: 800.0 micrograms/kg/injection, schedule: Q01DX009 (ip), vehicle: saline) 92 % of control.
For the compound `C[n+]1ccc(NC(=O)c2ccc(NC(=O)c3cccc(C(=O)Nc4ccc(C(=O)Nc5cc[n+](C)cc5)cc4)c3)cc2)cc1`, the T/C runs as follows: (dose: 5.0 mg/kg/injection, schedule: Q01DX010 (ip), vehicle: saline) 100 % of control; under setting [1], 107 % of control; under setting [2], 166 % of control.
As for `O=C(Nc1cccc(NC(=O)Nc2cccc(C3=NCCN3)c2)c1)Nc1cccc(C2=NCCN2)c1`, the T/C by setting is: under setting [2], 154 % of control; under setting [3], 118 % of control.
With `CN=C(NC)c1ccc(NC(=O)Nc2ccc(NC(=O)Nc3ccc(C(=NC)NC)cc3)cc2)cc1`, the T/C (dose: 13.3 mg/kg/injection, schedule: Q01DX010 (ip), vehicle: saline) was 150 % of control; the T/C under setting [4] was 100 % of control; the T/C (dose: 30.0 mg/kg/injection, schedule: Q01DX010 (ip), vehicle: saline) was 504 % of control.
Take `CCC1(O)CC2CN(CCc3c([nH]c4ccccc34)C(C(=O)OC)(c3cc4c(cc3OC)N(C)C3C(O)(C(=O)NCCSSCCNC(=O)C5(O)C(O)C6(CC)C=CCN7CCC8(c9cc(C%10(C(=O)OC)CC%11CN(CCc%12c%10[nH]c%10ccccc%12%10)CC(O)(CC)C%11)c(OC)cc9N(C)C58)C76)C(O)C5(CC)C=CCN6CCC43C65)C2)C1` (stereo not given): the T/C was 117 % of control (dose: 250.0 micrograms/kg/injection, schedule: Q04DX003 (ip), vehicle: saline); 154 % of control (dose: 648.0 micrograms/kg/injection, schedule: Q04DX003 (ip), vehicle: saline); 161 % of control (dose: 1000.0 micrograms/kg/injection, schedule: Q04DX003 (ip), vehicle: saline); 164 % of control (dose: 2000.0 micrograms/kg/injection, schedule: Q04DX003 (ip), vehicle: saline); 90 % of control (dose: 3000.0 micrograms/kg/injection, schedule: Q04DX003 (ip), vehicle: saline).
As for `CC(=O)c1cccc(NC2C(N)C(NC(=O)N(C)C)(C(C)O)C(C)(O)C2(O)COC(=O)c2c(C)cccc2O)c1` (stereo not given), the T/C reads like this: (dose: 5.4 mg/kg/injection, schedule: Q04DX003 (ip), vehicle: alkali diluted with saline) 98 % of control; (dose: 9.0 mg/kg/injection, schedule: Q04DX003 (ip), vehicle: alkali diluted with saline) 98 % of control; (dose: 15.0 mg/kg/injection, schedule: Q04DX003 (ip), vehicle: alkali diluted with saline) 100 % of control.
In the case of `O=c1[nH]cc(F)c(=O)[nH]1`, the T/C is 155 % of control (dose: 2.5 mg/kg/injection, schedule: Q01DX010 (ip), vehicle: saline); 200 % of control under setting [1]; 116 % of control and 235 % of control under setting [4]; 154 % of control (dose: 21.6 mg/kg/injection, schedule: Q04DX003 (ip), vehicle: saline); 188 % of control (dose: 36.0 mg/kg/injection, schedule: Q04DX003 (ip), vehicle: saline); 252 % of control (dose: 60.0 mg/kg/injection, schedule: Q04DX003 (ip), vehicle: saline). In addition, for the setting “dose: 100.0 mg/kg/injection, schedule: Q04DX003 (ip), vehicle: saline”, the T/C was 270 % of control.
As to `COc1cc2c[n+](C)c3c4cc5c(cc4ccc3c2cc1OC)OCO5`, the T/C is 106 % of control (dose: 43.2 mg/kg/injection, schedule: Q04DX003 (ip), vehicle: Klucel (hydroxypropylcellulose) (HPC)); 108 % of control (dose: 72.0 mg/kg/injection, schedule: Q04DX003 (ip), vehicle: Klucel (hydroxypropylcellulose) (HPC)); 106 % of control (dose: 120.0 mg/kg/injection, schedule: Q04DX003 (ip), vehicle: Klucel (hydroxypropylcellulose) (HPC)); 109 % of control (dose: 200.0 mg/kg/injection, schedule: Q04DX003 (ip), vehicle: Klucel (hydroxypropylcellulose) (HPC)).
Take `COc1cc([C@@H]2c3cc4c(cc3[C@@H](OC3OC5COC(C)OC5C(O)C3O)[C@H]3COC(=O)[C@H]23)OCO4)cc(OC)c1O` (stereo not given in full): the T/C is 274 % of control (dose: 7.48 mg/kg/injection, schedule: Q04DX003 (ip), vehicle: other); 250 % of control (dose: 12.5 mg/kg/injection, schedule: Q04DX003 (ip), vehicle: other); 307 % of control (dose: 20.8 mg/kg/injection, schedule: Q04DX003 (ip), vehicle: other); 340 % of control (dose: 34.6 mg/kg/injection, schedule: Q04DX003 (ip), vehicle: other).
In the case of `O=C(Nc1ccc(C(=O)Nc2ccc(C3=NCCCN3)cc2)cc1)Nc1ccc(C2=NCCCN2)cc1`, the T/C by setting is: (dose: 1.88 mg/kg/injection, schedule: Q01DX010 (ip), vehicle: saline) 116 % of control and 123 % of control; (dose: 3.75 mg/kg/injection, schedule: Q01DX010 (ip), vehicle: saline) 116 % of control and 123 % of control; (dose: 15.0 mg/kg/injection, schedule: Q01DX010 (ip), vehicle: saline) 123 % of control.
For the compound `O=P1(N(CCCl)CCCl)NCCCO1` (stereo not given), the T/C was 181 % of control (dose: 144.0 mg/kg/injection, schedule: Q01DX001 (ip), vehicle: saline) and 194 % of control (dose: 240.0 mg/kg/injection, schedule: Q01DX001 (ip), vehicle: saline).
For the compound `Nc1nc(SCc2ccccc2)c2[nH]cnc2n1`, the T/C runs as follows: under setting [5], 100 % of control; under setting [6], 95 % of control and 100 % of control; under setting [7], 104 % of control and 109 % of control; (dose: 64.0 mg/kg/injection, schedule: Q01DX010 (ip), vehicle: saline) 95 % of control and 100 % of control.
In the case of `COC(=O)C[C@](O)(CCCC(C)(C)O)C(=O)O[C@@H]1C(OC)=C[C@]23CCCN2CCc2cc4c(cc2[C@H]13)OCO4`, the T/C (dose: 0.72 mg/kg/injection, schedule: Q04DX003 (ip), vehicle: acid diluted with saline) was 100 % of control; the T/C (dose: 1.2 mg/kg/injection, schedule: Q04DX003 (ip), vehicle: acid diluted with saline) is 100 % of control; the T/C (dose: 2.0 mg/kg/injection, schedule: Q04DX003 (ip), vehicle: acid diluted with saline) is 98 % of control; the T/C (dose: 3.33 mg/kg/injection, schedule: Q04DX003 (ip), vehicle: acid diluted with saline) is 97 % of control.
Consider `CC(=O)Nc1ccc2nc3ccc(NC(C)=O)cc3[n+](-c3ccccc3)c2c1`, for which the T/C under setting [8] is 91 % of control and the T/C under setting [9] is 87 % of control.
With `CC(CCC(C)OS(C)(=O)=O)OS(C)(=O)=O` (stereo not given), the T/C (dose: 2.0 mg/kg/injection, schedule: Q01DX010 (ip), vehicle: saline) is 100 % of control; the T/C (dose: 4.0 mg/kg/injection, schedule: Q01DX010 (ip), vehicle: saline) is 96 % of control; the T/C under setting [5] was 96 % of control and 100 % of control; the T/C under setting [6] was 100 % of control and 112 % of control; the T/C under setting [7] was 90 % of control.
Take `O=C(Nc1ccc(C2=NCCN2)cc1)c1ccc(C(=O)Nc2ccc(C3=NCCN3)cc2)c(F)c1`: the T/C was 100 % of control (dose: 22.5 mg/kg/injection, schedule: Q01DX010 (ip), vehicle: saline); 107 % of control (dose: 45.0 mg/kg/injection, schedule: Q01DX010 (ip), vehicle: saline); 123 % of control under setting [3].
With `O=C(Nc1ccc(C2=NCCN2)cc1)c1ccc(C(=O)Nc2ccc(C3=NCCN3)cc2)c(NC(=O)c2ccc(C(=O)Nc3cc(C(=O)Nc4ccc(C5=NCCN5)cc4)ccc3C(=O)Nc3ccc(C4=NCCN4)cc3)cc2)c1`, the T/C by setting is: under setting [8], 109 % of control; under setting [9], 109 % of control; (dose: 100.0 mg/kg/injection, schedule: Q01DX010 (ip), vehicle: saline) 104 % of control; (dose: 200.0 mg/kg/injection, schedule: Q01DX010 (ip), vehicle: saline) 104 % of control.
